Molecules are shown by their SMILES. pIC50: −log10 of the molar value. Values joined by “and” are separate entries in the source; they are usually repeats but may differ in a detail not shown here. Identical values can stand only once.

Experiment [1] concerns the target ALK1 (Homo sapiens, UniProt P37023). Briefly: TR-FRET enzymatic ALK kinase assay, ALK1. Background: Time-resolved FRET reads energy transfer from a long-lived donor to a nearby acceptor.
Protocol: (§1) Briefly, the ALKs enzymatic assay was initiated by dispense 2.5 μl enzyme in 1× kinase reaction buffer. The assay plate was then added with compounds followed by incubation at room temperature for 10 minutes. Then 2.5 μl/well substrate was added.
Experiment [2] concerns the target T1, ALK4 (Homo sapiens, UniProt P36896).
T1 sequence (P36896 24-505): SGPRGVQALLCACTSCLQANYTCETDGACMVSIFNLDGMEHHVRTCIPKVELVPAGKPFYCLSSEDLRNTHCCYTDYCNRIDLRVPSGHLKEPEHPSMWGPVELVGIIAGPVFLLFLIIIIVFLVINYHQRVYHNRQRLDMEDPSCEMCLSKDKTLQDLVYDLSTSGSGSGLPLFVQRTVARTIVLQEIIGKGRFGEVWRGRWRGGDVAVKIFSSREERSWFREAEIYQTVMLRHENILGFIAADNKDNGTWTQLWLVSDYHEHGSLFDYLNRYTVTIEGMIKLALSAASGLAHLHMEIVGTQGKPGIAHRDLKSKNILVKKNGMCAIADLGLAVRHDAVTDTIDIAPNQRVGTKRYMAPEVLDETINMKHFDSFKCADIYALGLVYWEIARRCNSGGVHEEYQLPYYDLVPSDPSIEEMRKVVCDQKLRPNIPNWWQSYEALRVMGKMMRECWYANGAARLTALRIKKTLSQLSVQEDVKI
Put plainly: TR-FRET enzymatic ALK kinase assay, ALK4.
Protocol: as §1

Experiment [3] concerns the target T2, ALK1 (Bos taurus, UniProt A4FUX2).
T2 construct: The BAOEC cell line was employed for the measurement of ALK1 activity using BMP9 as the agonist; host or cells: BAOEC (bovine aortic endothelial cells)
T2 sequence (A4FUX2 23-503): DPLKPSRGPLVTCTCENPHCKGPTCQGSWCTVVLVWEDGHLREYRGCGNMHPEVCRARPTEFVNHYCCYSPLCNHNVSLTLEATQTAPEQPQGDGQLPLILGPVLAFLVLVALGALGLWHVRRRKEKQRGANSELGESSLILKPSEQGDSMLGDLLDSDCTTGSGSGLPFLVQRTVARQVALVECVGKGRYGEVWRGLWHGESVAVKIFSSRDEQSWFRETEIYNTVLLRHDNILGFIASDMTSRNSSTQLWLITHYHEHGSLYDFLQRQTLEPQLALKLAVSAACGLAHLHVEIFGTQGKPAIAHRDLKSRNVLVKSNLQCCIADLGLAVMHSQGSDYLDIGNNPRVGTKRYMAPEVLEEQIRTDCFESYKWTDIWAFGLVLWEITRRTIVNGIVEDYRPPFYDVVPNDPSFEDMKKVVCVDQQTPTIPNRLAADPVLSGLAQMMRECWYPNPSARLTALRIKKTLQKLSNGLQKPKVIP
Put plainly: In-cell Western ALK1 assay (BAOEC cells, BMP9 as agonist). The settings on record: read-out: BMP9 ICW. The format is cell-based, Bovine. The text has this:
3. In-Cell Western ALK1 and ALK2 Assays in 384-Well Plate Format.
We also optimized cell-based In-cell Western assays for measurements of ALK1 and ALK2 activities that were used to determine compound activities in these two kinases. The cell lines and agonists used were same as described in above cell-based HTRF ALK1 and ALK2 assays. The initial cell plating and compound treatment were also same. The main difference is the detection of phosphorylation status of SMAD1. In t-cell Western assay, the cells were fixed and phosphorylation status of SMAD1 was detected by the ELISA instead of using the HTRF assay kit in above assay.
C2C12 cells and RPMI 1640 medium were obtained from ATCC (Manassas, Va.) and Bovine Aortic endothelial Cells (BAOEC) and epithelial defined growth medium were purchased from Genlantis (San Deigo, Calif.). HyClone Fetal Bovine Serum was obtained from GE healthcare life sciences (Logan, Utah). BMP6 and BMP9 were purchased from R&D System (R&D). Anti-P-SMAD 1/5/8 rabbit mAb and anti-rabbit IgG, HRP-Linked antibody were purchased from Cell Signaling Technology (Danvers, Mass.). BioFX Chemiluminescent Ultra-Sensitive HRP Microwell Substrate ECL Reagent was obtained from SurModics (Edina, Minn.). The compound plates and the white solid MB assay plates were from Greiner Bio-one (Monroe, N.C.).
Similarly as described in above HTRF cell-based assay, this assay was performed in 384 well plate format. C2C12 were grown in T225 flasks were sterilely washed with 1×PBS pre-starved with medium containing 0.1% FBS for 20 hours. Pre-starved cells were then plated in 384 well plate in the starvation medium (containing in 0.1% FBS). After 4 hours, compound dilutions in DMSO were added to the assay plate and incubated for 30 minutes. The assay plate was then added with BMP6 for C2C12 cells or BMP9 for BAOEC cells and incubated for 30 minutes.
Cells were fixed with 50 ul ice-cold methanol and incubated for 15 min after removing the supernatant. The methanol was removed and filled with 0.5% glutaraldehyde and incubated at room temperature for 15 min. The cells were washed in the plate washer with PBS and blocked with 2% BSA in PBS for 1 h at room temperature on the rotator. After removing the blocking reagent, the cells were incubated with the anti-p-SMAD1 antibody in 2% BSA in PBS for overnight at 4° C. on rotator. The cells were washed with PBS in the plate washer and incubated with HRP conjugated second antibody in 2% BSA in PBS for 1 hour at room temperature. After a cell wash with PBS, ECL detection reagent was added and the plate was read in the luminesce mode in the ViewLux plate reader.

Experiment [4] has as its target T3, ALK5 (Homo sapiens, UniProt P36897).
T3 sequence (P36897 34-503): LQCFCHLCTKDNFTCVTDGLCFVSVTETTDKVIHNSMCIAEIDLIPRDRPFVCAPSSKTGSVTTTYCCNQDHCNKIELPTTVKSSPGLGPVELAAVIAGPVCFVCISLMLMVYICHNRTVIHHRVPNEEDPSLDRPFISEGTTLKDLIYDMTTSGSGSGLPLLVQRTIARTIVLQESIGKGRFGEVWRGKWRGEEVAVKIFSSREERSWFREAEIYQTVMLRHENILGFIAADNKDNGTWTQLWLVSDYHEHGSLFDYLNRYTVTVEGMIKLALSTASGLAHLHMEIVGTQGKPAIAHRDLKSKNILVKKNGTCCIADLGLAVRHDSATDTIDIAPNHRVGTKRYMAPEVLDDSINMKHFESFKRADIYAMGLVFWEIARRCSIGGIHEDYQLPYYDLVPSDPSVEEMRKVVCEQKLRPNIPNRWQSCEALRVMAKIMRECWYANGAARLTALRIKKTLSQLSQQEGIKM
Put plainly: TR-FRET enzymatic ALK kinase assay, ALK5.
Protocol: Six ALK kinase enzyme assays were developed for determination of compound activities on ALK1, ALK2, ALK3, ALK4, ALK5 and ALK6.
as §1

Sequence of ALK1 (Homo sapiens, UniProt P37023) (P37023 22-503): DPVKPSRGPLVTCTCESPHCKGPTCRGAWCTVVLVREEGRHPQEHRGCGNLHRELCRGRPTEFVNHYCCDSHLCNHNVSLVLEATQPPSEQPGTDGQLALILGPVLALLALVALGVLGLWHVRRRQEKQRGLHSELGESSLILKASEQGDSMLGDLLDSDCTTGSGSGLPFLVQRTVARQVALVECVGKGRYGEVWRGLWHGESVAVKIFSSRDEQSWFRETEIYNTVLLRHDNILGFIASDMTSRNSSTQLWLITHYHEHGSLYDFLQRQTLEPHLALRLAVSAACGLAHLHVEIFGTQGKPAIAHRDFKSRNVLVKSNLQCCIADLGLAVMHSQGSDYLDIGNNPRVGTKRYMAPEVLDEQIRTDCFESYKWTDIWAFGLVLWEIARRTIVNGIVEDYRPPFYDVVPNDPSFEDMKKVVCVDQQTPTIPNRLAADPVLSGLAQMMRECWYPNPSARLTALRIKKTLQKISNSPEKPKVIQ

For `C[S+](=O)([O-])c1cccc(-c2cnn3cc(-c4ccc(OC5(Cn6ccnc6)COC5)cc4)cnc23)c1` [Compound 105, 6-(4-((3-((1H-imidazol-1-yl)methyl)oxetan-3-yl)oxy)phenyl)-3-(3-(methylsulfonyl)phenyl)pyrazolo[1,5-a]pyrimidine], the pIC50 in experiment [1] is 6.82; in experiment [2] it was below 5.00; in experiment [3], 5.85 and 5.64 and 5.92; in experiment [4], below 5.00.

For `C[C@@H]1CNC[C@H](C)N1c1ccc(-c2cnc3c(-c4cccc5c(C(N)=O)cccc45)cnn3c2)cc1` [Compound 10, 5-(6-(4-((2S,6R)-2,6-dimethylpiperazin-1-yl)phenyl)pyrazolo[1,5-a]pyrimidin-3-yl)-1-naphthamide], the pIC50 was 8.30 in experiment [1]; 5.97 in experiment [2]; 7.38 and 7.28 and 7.18 and 7.11 and 7.04 and 7.55 and 7.31 and 7.29 in experiment [3]; 5.03 in experiment [4].

For the compound `C[C@@H]1CNC[C@H](C)N1c1ccc(-c2cnc3c(-c4cccc([S+](=O)([O-])C5CC5)c4)cnn3c2)cc1` [Compound 111, 3-(3-(cyclopropylsulfonyl)phenyl)-6-(4-((2R,6S)-2,6-dimethylpiperazin-1-yl)phenyl)pyrazolo[1,5-a]pyrimidine], the pIC50 is 6.92 in experiment [1], 5.19 in experiment [2], 5.74 in experiment [3] and below 5.00 in experiment [4].

`N/C(=N/O)c1ccc(-c2cnn3cc(-c4ccc(N5CCNCC5)cc4)cnc23)c2ccccc12` [Compound 15, N′-hydroxy-4-(6-(4-(piperazin-1-yl)phenyl)pyrazolo[1,5-a]pyrimidin-3-yl)-1-naphthimidamide]: the pIC50 was 5.83 in experiment [1], 4.52 in experiment [2], 5.82 in experiment [3] and 4.76 in experiment [4].

For `CC[S+](=O)([O-])c1cccc(-c2cnn3cc(-c4ccc(N5[C@H](C)CNC[C@@H]5C)cc4)cnc23)c1` [Compound 104, 6-(4-((2R,6S)-2,6-dimethylpiperazin-1-yl)phenyl)-3-(3-(ethylsulfonyl)phenyl)pyrazolo[1,5-a]pyrimidine], the pIC50 in experiment [1] was 7.47; in experiment [2], 5.32; in experiment [3] it was 5.96 and 6.44 and 6.07; in experiment [4], below 5.00.
